The results in this text go back to PubChem BioAssay (NCI).

Test in all cases: NCI anticancer screen, dose series, 48 h
In test [1] the test system is A549 NSCLC.
In test [2] the test system is A498 renal.
The test system of test [3] is MDA-MB-435.
Test [4] relates to NCI-H522 lung.
The subject of test [5] is 786-0 renal.
The test system of test [6] is HS 578T breast.
The test system of test [7] is SN12C renal.
In test [8] the test system is COLO 205 colon.
The subject of test [9] is MALME-3M melanoma.
Test [10] concerns T-47D breast.
For test [11], the system named is MDA-MB-231 breast.
The test system of test [12] is RPMI-8226 leukemia.
In test [13] the test system is NCI/ADR-RES ovarian.
In test [14] the test system is OVCAR-5 ovarian.
For test [15], the system named is HT29 colon.
For test [16], the system named is NCI-H460 lung.
Test [17] has as its system SF-539 CNS.
Test [18] has as its system OVCAR-3 ovarian.
Test [19] has as its system HCT-116 colon.
Test [20] has as its system HOP-62 NSCLC.

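How tested: cells in 96-well plates exposed to compound for 48 hours at five concentrations. TGI marks complete inhibition of growth.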

As to `C/C=C/C=C/C1=NN(c2cccc(S(=O)(=O)O)c2)C2(C1)C(Cl)C(=O)N2c1nc2ccccc2s1` (stereo not given), the TGI in test [1] is 28.3 µM; in test [2], 31.8 µM; in test [3] it was 26.6 µM; in test [4] it was 13.3 µM; in [5], 26.7 µM; in test [6], more than 90.3 µM. Further, the TGI in [7] was 32.1 µM; in [8], 35.3 µM; in [9] it was 32.7 µM; in test [10] it was 21.3 µM; in test [11] it was 28.9 µM; in test [12], more than 51.6 µM. Moreover, the TGI is more than 82.7 µM in test [13]; 34.8 µM in test [14]; 33.3 µM in test [15]; 31.6 µM in test [16]; 27.8 µM in test [17]; 24.7 µM in test [18]. The TGI in [19] amounted to 27.7 µM; in [20], 36.2 µM.
`Cn1ccnc1SC(F)(F)c1nc2ccccc2o1`: the TGI in [1], in test [2], in [3], in test [4], in test [5] and in test [6] was more than 100 µM throughout. Moreover, the TGI in [7], in test [8], in test [9], in test [10], in [11] and in [12] was more than 100 µM throughout. Also, the TGI in test [13], in test [14], in test [15], in [16], in test [17] and in [18] was more than 100 µM throughout. Moreover, the TGI in test [19] and in test [20] was more than 100 µM throughout.
`C/C(=N/NC(=S)N1CCCCCC1)c1ccccc1O`: the TGI was more than 100 µM in test [1]; more than 74 µM in [2]; more than 100 µM in test [3]; more than 53.2 µM in test [4]; 39.3 µM in test [5]; more than 100 µM in test [6]. Further, the TGI was 40.9 µM in [7]; more than 49.3 µM in test [8]; more than 49.8 µM in [9]; more than 33.6 µM in test [10]; more than 66.8 µM in [11]; 40.4 µM in test [12]. Further, the TGI is 8.35 µM in test [13]; more than 100 µM in test [14]; 39.7 µM in test [15]; 25.2 µM in test [16]; 28.5 µM in test [17]; more than 40.9 µM in [18]. For the same compound, the TGI was more than 100 µM in test [19] and 56.7 µM in test [20].
With `Cc1nc2ccc(N=Nc3c(O)ccc4ccccc34)cc2[nH]1`, the TGI in [1] was more than 78.7 µM; in [2], more than 92.7 µM; in test [3], 45.9 µM; in test [4] it was 54.3 µM; in [5], 54.4 µM; in [6], 61.9 µM. Moreover, the TGI in test [7] was more than 74.9 µM; in test [8], more than 66.6 µM; in test [9] it was more than 66.5 µM; in [10] it was 41 µM; in test [11], 53.6 µM; in test [12], more than 82.8 µM. Also, the TGI in test [13] was 60.2 µM; in test [14], more than 100 µM; in test [15], more than 67.2 µM; in [16], more than 87.7 µM; in [17] it was more than 62.3 µM; in test [18], more than 56.2 µM. In addition, the TGI in test [19] was more than 58.4 µM; in [20], more than 100 µM.
For the compound `COc1cccc(N=N/C(=N/NC(=O)c2cc(Cl)ccc2O)c2ccc(N(CCC#N)CCC#N)cc2C)c1`, the TGI in test [1] is more than 100 µM; in test [2], more than 100 µM; in test [3] it was more than 100 µM; in test [4] it was 31.9 µM; in test [5], more than 100 µM; in test [6], more than 100 µM. The TGI in test [7] was more than 100 µM; in [8], 41.2 µM; in test [9], 48.7 µM; in test [10], 58.4 µM; in [11], more than 100 µM; in [12], more than 100 µM. In addition, the TGI was more than 100 µM in [13]; more than 100 µM in [14]; more than 100 µM in test [15]; more than 100 µM in test [16]; more than 100 µM in test [17]; 6.48 µM in test [18]. Besides, the TGI in test [19] and in test [20] was more than 100 µM in each case.
For `O=C(O)C(F)(OC(F)(F)C(F)(F)C(F)(F)F)C(F)(F)F` (stereo not given), the TGI in test [1], in [2], in test [3], in test [4], in [5] and in test [6] was more than 100 µM throughout. Further, the TGI in test [7], in test [8], in test [9], in test [10], in test [11] and in test [12] was more than 100 µM in each case. Also, the TGI in test [13], in test [14], in test [15], in test [16], in test [17] and in [18] was more than 100 µM throughout. The TGI in test [19] and in [20] was more than 100 µM throughout.
With `O=C(O)c1cnccc1-c1cc(=O)[nH]n1-c1ccccc1`, the TGI in test [1], in test [2], in test [3], in test [4], in test [5] and in [6] was more than 100 µM each time. The TGI in test [7] is more than 100 µM; in [8] it was 34.3 µM; in test [9], more than 100 µM; in test [10], more than 100 µM; in [11] it was more than 100 µM; in test [12] it was more than 100 µM. In addition, the TGI in test [13] is more than 100 µM; in test [14] it was more than 100 µM; in [15] it was more than 67.1 µM; in test [16] it was more than 100 µM; in [17], more than 71.2 µM; in test [18] it was more than 100 µM. Moreover, the TGI in test [19] and in [20] was more than 100 µM in each case.
